According to US11413278B2, “Compounds and methods for promoting stress resistance” (priority 2015, dated 2022):
Read-outs that look alike come from different tables or passages of the source.

Assays:
LC3A/B puncta = assay: Autophagy induction analysis (LC3A/B puncta immuno-staining); type: cell-based, human
Outline: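 Read-out is LC3A/B puncta intensity per DAPI-positive nucleus, either total puncta (Exp. 1) or puncta colocalizing with LAMP2 lysosomes (Exp. 2). Cells were WI-38, exposed to compounds for 24 hrs before antibody staining overnight at 4° C and automated imaging.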

NRF2 [1] = assay: qPCR analysis of NRF2-regulated genes; type: cell-based, human; details: for fold induction at 10 µM: Homo sapiens
Outline: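 Expression of HMOX1, NQO1, GCLC and GSTM1 measured by qPCR relative to B2M, PPIA and GAPDH. Cells were WI-38 fibroblasts exposed 24 hrs to 10 μM compound, with RNA and cDNA prepared via Cells-to-Ct. Where stated, cells were first transfected 36 hrs with FOXO3 or NRF2 siRNA at 10 nM.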

C. elegans = C. elegans lifespan assays (liquid and plate); type: in vivo, Caenorhabditis elegans; details: for ILS at 60 µM / ILS at 66 µM: Caenorhabditis elegans; for O = Life span- extending scores in worms: score scale 0 to 2, 4 to 6 independent trials; for M = Lifespan-extending scores in worms: summary score
NRF2 [2] = assay: in vitro; type: cell-based, human
[3] = 24 h, Assay 12(o), at 10 uM, qPCR, read-out: Induction of NRF2-regulated genes: GCLC normalized fold-change
[4] = 24 h, Assay 12(o), at 10 uM, qPCR, read-out: Induction of NRF2-regulated genes: HMOX1 normalized fold-change
[5] = rounded fold change, WI-38 cells, 10 μM, 24 hrs (RP11 for Gr-1D, RP29 for Gr-4D), read-out: Summary of effects on NRF2-regulated genes: HMOX1
[6] = rounded fold change, WI-38 cells, 10 μM, 24 hrs, read-out: Summary of effects on NRF2-regulated genes: GCLC
[7] = 10 μM, 24 hrs, WI-38 cells, qPCR, normalized to B2M, n = 4, read-out: GCLC expression, normalized fold change (NRF2-regulated gene)
[8] = 10 μM, 24 hrs, WI-38 cells, qPCR, normalized to B2M, n = 4, read-out: HMOX1 expression, normalized fold change (NRF2-regulated gene)
[9] = WI-38 cells, 10 μM, 24 hrs, n=4, qPCR normalized by B2M, read-out: GCLC Normalized fold change
[10] = WI-38 cells, 10 μM, 24 hrs, n=4, qPCR normalized by B2M, read-out: GSTM1 Normalized fold change
[11] = WI-38 cells, 10 μM, 24 hrs, n=4, qPCR normalized by B2M, read-out: HMOX1 Normalized fold change
[12] = WI-38 cells, 10 μM, 24 hrs, n=4, qPCR normalized by B2M, read-out: NQO1 Normalized fold change
[13] = in liquid, wild type, with FuDR, 1.0 × 10^9 bacteria/ml, read-out: relative change of mean lifespan vs control, Trial 1
[14] = in liquid, wild type, with FuDR, 2.5 × 10^9 bacteria/ml, read-out: relative change of mean lifespan vs control, Trial 2
[15] = on plate, CF512 temperature-sensitive sterile animals, without FuDR, 2.0 × 10^10 bacteria/ml, read-out: relative change of mean lifespan vs control, Trial 3
[16] = Assay 2(z), 1.0 × 10^9 bacteria/ml, wild type + FuDR (2012 July), read-out: Lifespan assay in liquid
[17] = Assay 3(aa), 2.5 × 10^9 bacteria/ml, wild type + FuDR, read-out: Lifespan assay in liquid
[18] = Assay 4(ab), 2.0 × 10^10 bacteria/ml, CF512 worms, no FuDR, read-out: Lifespan assay on plates
[19] = 10 uM, with H2O2, NRF2 knockdown in WI-38 cells, YES = resistance reduced by at least 50%, partial = 25% to 50%

SMILES	H = Potential Autophagy Induction (LC3A/B puncta; score)	H = Potential Autophagy Induction (LC3A/B puncta; summary score)	F = Potential NRF2 Activation (NRF2 [1]; 2-point score)	fold induction at 10 µM (NRF2 [1]; [3])	fold induction at 10 µM (NRF2 [1]; [4])	fold induction at 10 µM (NRF2 [1]; [5])	fold induction at 10 µM (NRF2 [1]; [6])	fold induction at 10 µM (NRF2 [1]; [7])	fold induction at 10 µM (NRF2 [1]; [8])	fold induction at 10 µM (NRF2 [1]; [9])	fold induction at 10 µM (NRF2 [1]; [10])	fold induction at 10 µM (NRF2 [1]; [11])	fold induction at 10 µM (NRF2 [1]; [12])	F = Potential NRF2 Activation (NRF2 [1]; summary score)	ILS at 60 µM (C. elegans; [13]) [%]	ILS at 60 µM (C. elegans; [14]) [%]	ILS at 60 µM (C. elegans; [15]) [%]	ILS at 66 µM (C. elegans; [16]) [%]	ILS at 66 µM (C. elegans; [17]) [%]	ILS at 66 µM (C. elegans; [18]) [%]	further results
O=C(NCc1cccnc1)/C(=C/c1ccc(-c2ccc(Cl)cc2)o1)S(=O)(=O)c1ccccc1 [Gr-7C]	0	0	2	2.27	28.1	28.1	2.27	2.27	28.1	2.27	0.784	28	0.811	2	-29.1	10.1	-41.6	-29.1	10.1	-41.6	Potential NRF2 Activation (>=2 target genes induced, by >=1.5-fold) (NRF2 [1]; Assay 13(p)): YES; fold induction at 10 µM (NRF2 [1]; 24 h, Assay 12(o), at 10 uM, qPCR, read-out: Induction of NRF2-regulated genes: GSTM1 normalized fold-change): 0.78; fold induction at 10 µM (NRF2 [1]; rounded fold change, WI-38 cells, 10 μM, 24 hrs (RP29 for Gr-4D), read-out: Summary of effects on NRF2-regulated genes: GSTM1): 0.78; fold induction at 10 µM (NRF2 [1]; 10 μM, 24 hrs, WI-38, read-out: Expression of at least two NRF2 target genes): > 1.5; fold induction at 10 µM (NRF2 [1]; 10 μM, 24 hrs, WI-38 cells, qPCR, normalized to B2M, n = 4, read-out: GSTM1 expression, normalized fold change (NRF2-regulated gene)): 0.78; O = Life span- extending scores in worms (C. elegans): 0; M = Lifespan-extending scores in worms (C. elegans): 0; Survival of NRF2 siRNA-transfected cells in the absence of H2O2 (NRF2 [2]): could reduce the survival; NRF2-dependency for H2O2-resistance, at 10 uM - with H2O2, 1st experiment (NRF2 [2]; 10 uM, experiment 1 (1st), with H2O2): 1st, YES;; NRF2-dependency for H2O2-resistance, 1st experiment (NRF2 [2]; [19]): YES;; Assay 17: NRF2-dependency for H2O2-resistance (NRF2 [2]; 10 uM, YES/NO): YES; NRF2-dependency of H2O2-resistance (NRF2 siRNA knockdown) (NRF2 [2]; at least 2 of 3 independent experiments): significantly attenuate; viability of non-stressed cells, reduced by (NRF2 [2]; human, 24 h, 10 uM): by 60%); J = NRF2-dependency for H2O2-resistance (NRF2 [2]; score): 1; J = NRF2-dependency for H2O2-resistance (NRF2 [2]; summary score): 1
N=C1S/C(=C\c2cn(-c3ccccc3)nc2-c2cccs2)C(=O)N1c1nccs1 [Gr-6C]	0	0	0	0.33	2.09	2.09	0.33	0.33	2.09	0.331	0.914	2.09	0.87	0	20.5	12.4	9.4	20.5	12.4	9.4	Extension of C. elegans' lifespan (qualitative) (C. elegans; in at least 3 to 4 trials, group range ~10% to ~50%): could extend animal's lifespan; Trials with lifespan extension (C. elegans; positive of total trials): 3 of 3; O = Life span- extending scores in worms (C. elegans): 2 (2 for observed in more than 2 trials); M = Lifespan-extending scores in worms (C. elegans): 2 (2 for observed in more than 2 trials); NRF2-dependency for H2O2-resistance, at 10 uM - with H2O2, 2nd experiment (NRF2 [2]; 10 uM, experiment 2 (2nd), with H2O2): 2nd, partial.; NRF2-dependency for H2O2-resistance, 2nd experiment (NRF2 [2]; [19]): partial.; J = NRF2-dependency for H2O2-resistance (NRF2 [2]; score): 0; J = NRF2-dependency for H2O2-resistance (NRF2 [2]; summary score): 0
